Source: ChEMBL document CHEMBL1909046, “DrugMatrix in vitro pharmacology data”

What was measured:
Leukotriene C4 synthase = target: T1, Leukotriene C4 synthase (Cavia porcellus, UniProt A6XA80); format: tissue-based, Lung;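 note: enzyme inhibition assay of leukotriene C4 synthase, using LTA4 as the substrate; in other assays of this panel Not Active means under 50% inhibition at 10 µM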
T1 sequence (A6XA80 whole entry): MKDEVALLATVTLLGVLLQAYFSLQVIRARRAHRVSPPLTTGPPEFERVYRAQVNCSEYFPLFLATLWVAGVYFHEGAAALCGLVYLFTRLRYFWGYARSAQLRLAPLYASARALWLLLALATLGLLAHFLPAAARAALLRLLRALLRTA

Glycine receptor = Glycine receptor (Rattus norvegicus, UniProt P22771+P24524+P07727+P20781); format: cell membranes, Wistar, Spinal cord, Membrane; note: in other assays of this panel Not Active means under 50% inhibition at 10 µM
Adenosine receptor A3 = target: T2, Adenosine receptor A3 (Homo sapiens, UniProt P0DMS8); format: cell membranes, CHO-K1, Membrane; conditions: cho-k1;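 note: radioligand binding assay with AB-MECA serving as the labeled ligand; in other assays of this panel Not Active means under 50% inhibition at 10 µM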
T2 sequence (P0DMS8 whole entry): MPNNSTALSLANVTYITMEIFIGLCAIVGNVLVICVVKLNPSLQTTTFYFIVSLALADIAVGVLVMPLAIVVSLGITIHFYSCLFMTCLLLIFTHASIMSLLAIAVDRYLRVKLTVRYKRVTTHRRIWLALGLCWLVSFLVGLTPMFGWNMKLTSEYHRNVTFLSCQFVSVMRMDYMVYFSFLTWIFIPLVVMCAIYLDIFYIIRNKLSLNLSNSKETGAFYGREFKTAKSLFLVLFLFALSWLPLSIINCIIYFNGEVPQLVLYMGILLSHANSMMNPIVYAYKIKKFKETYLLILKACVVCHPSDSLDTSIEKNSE

[1] = target: T3, Angiotensin-converting enzyme (Oryctolagus cuniculus, UniProt P12822); format: tissue-based, Lung;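 note: enzymatic inhibition of angiotensin-converting enzyme measured with FAPGG as the substrate; in other assays of this panel Not Active means under 50% inhibition at 10 µM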
T3 sequence (P12822 whole entry): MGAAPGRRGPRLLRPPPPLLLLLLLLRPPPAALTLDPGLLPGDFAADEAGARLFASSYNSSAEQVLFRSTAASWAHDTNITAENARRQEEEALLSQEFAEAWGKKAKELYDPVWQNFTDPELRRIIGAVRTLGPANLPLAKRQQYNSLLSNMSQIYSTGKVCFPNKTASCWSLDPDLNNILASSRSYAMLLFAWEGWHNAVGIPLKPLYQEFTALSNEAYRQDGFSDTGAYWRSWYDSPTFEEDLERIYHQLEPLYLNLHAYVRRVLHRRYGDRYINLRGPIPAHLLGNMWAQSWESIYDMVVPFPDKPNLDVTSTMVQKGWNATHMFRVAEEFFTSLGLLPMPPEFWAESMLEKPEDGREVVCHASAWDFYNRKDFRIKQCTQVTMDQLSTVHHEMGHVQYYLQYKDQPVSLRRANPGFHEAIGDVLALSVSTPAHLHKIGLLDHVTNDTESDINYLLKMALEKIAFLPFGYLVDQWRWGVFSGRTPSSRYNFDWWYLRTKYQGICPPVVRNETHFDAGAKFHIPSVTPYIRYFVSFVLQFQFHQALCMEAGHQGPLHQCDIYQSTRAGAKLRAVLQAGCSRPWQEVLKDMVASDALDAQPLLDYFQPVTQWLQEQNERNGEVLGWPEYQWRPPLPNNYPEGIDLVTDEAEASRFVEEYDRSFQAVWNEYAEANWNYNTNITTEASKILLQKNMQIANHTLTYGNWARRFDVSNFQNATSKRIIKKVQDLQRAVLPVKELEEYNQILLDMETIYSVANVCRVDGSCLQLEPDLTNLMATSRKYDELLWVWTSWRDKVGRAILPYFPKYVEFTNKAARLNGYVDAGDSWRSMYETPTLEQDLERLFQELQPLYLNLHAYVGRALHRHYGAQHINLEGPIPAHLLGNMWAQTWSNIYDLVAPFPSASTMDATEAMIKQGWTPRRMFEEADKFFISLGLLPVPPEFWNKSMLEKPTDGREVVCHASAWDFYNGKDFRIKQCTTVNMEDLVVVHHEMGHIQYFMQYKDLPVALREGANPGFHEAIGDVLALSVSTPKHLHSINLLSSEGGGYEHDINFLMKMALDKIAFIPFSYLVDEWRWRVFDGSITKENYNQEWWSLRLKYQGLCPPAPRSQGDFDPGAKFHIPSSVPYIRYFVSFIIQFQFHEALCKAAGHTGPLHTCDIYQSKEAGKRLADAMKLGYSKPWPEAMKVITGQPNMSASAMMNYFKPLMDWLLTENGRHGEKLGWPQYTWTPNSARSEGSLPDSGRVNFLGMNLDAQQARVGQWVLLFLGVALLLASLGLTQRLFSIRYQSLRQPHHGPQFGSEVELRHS

[2] = target: Matrix metalloproteinase-9 (Homo sapiens, UniProt P14780); assay: biochemical; format: cell-based
[3] = target: T4, 5-hydroxytryptamine receptor 1A (Rattus norvegicus, UniProt P19327); format: cell membranes, Membrane; conditions: cho-k1; note: in other assays of this panel Not Active means under 50% inhibition at 10 µM
T4 sequence (P19327 whole entry): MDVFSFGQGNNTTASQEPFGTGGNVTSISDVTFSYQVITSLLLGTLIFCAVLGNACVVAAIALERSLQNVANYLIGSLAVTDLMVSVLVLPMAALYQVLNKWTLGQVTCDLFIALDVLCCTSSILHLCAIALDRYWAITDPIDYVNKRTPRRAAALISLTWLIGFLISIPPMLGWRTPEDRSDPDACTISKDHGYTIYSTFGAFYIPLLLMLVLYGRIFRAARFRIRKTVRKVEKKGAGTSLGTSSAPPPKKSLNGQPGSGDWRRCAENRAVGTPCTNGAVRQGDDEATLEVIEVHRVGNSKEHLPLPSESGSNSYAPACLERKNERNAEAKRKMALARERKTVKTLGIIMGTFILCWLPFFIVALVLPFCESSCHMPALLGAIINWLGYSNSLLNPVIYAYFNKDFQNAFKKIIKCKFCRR

[4] = DRUGMATRIX: beta-Lactamase enzyme inhibition (substrate: Nitrocefin); design: species or system Bacillus cereus; conditions: Not Active = under 50% inhibition at 10 µM

Chain of Matrix metalloproteinase-9 (P14780 whole entry): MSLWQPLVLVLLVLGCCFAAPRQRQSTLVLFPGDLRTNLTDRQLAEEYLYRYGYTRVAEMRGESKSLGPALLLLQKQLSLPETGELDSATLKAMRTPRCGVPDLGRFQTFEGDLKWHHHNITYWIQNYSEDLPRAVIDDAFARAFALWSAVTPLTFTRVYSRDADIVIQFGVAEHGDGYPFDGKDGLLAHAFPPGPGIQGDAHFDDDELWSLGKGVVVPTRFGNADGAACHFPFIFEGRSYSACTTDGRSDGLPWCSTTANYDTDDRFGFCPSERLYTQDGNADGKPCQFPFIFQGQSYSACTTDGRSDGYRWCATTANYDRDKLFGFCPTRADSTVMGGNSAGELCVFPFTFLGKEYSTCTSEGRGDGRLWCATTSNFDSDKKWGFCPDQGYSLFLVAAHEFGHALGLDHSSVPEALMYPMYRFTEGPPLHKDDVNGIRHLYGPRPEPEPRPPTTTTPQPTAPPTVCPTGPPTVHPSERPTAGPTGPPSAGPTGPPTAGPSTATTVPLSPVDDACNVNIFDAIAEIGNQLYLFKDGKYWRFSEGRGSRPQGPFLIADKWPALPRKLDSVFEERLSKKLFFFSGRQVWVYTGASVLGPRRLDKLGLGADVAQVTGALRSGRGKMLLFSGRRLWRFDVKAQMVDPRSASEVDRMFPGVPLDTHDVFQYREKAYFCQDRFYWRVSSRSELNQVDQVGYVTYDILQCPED

CCCC(CCC)C(=O)O [VALPROIC ACID]
Not Active: IC50 (Leukotriene C4 synthase) | IC50 (Glycine receptor) | IC50 (Adenosine receptor A3) | IC50 [1] | IC50 [2] | IC50 [3] | IC50 [4] | Ki [4]

CCC1=C[C@@H]2CN(C1)Cc1c([nH]c3ccccc13)[C@@](C(=O)OC)(c1cc3c(cc1OC)N(C)[C@H]1[C@@](O)(C(=O)OC)[C@H](OC(C)=O)[C@]4(CC)C=CCN5CC[C@]31[C@@H]54)C2 [VINORELBINE]
Not Active: IC50 (Leukotriene C4 synthase) | IC50 (Glycine receptor) | IC50 (Adenosine receptor A3) | IC50 [1] | IC50 [2] | IC50 [3] | IC50 [4] | Ki [4]

CADMIUM DICHLORIDE
Not Active: IC50 (Leukotriene C4 synthase) | Ki (Leukotriene C4 synthase) | IC50 (Glycine receptor) | Ki (Glycine receptor) | IC50 (Adenosine receptor A3) | Ki (Adenosine receptor A3) | IC50 [1] | Ki [1] | IC50 [2] | Ki [2] | IC50 [3] | Ki [3] | IC50 [4] | Ki [4]
